The results in this text go back to patent publication US12606541B2, “PPARg modulators and methods of use” (Eisai R&D Management Co., Ltd., priority 2020, dated 2026).

In one test the target is T1, His6-TEV-PPARγ-(234-505) (Homo sapiens, UniProt P37231).
T1 construct: The His6-TEV-PPARγ-(234-505) protein for assay was expressed and purified; TEV cleavage site (N); made in house
T1 sequence (P37231 234-505): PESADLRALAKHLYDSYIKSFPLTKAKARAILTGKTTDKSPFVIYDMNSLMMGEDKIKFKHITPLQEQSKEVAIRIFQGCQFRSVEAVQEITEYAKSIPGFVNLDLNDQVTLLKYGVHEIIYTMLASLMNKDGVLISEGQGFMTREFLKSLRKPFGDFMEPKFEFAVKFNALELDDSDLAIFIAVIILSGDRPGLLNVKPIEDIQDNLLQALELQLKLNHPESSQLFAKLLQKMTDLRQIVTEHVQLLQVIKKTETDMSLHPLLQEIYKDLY
The experiment in a line: TR-FRET Assay to Measure Co-R Peptide Recruitment to PPARγ. The following applies: Co-R peptide (SMRT-ID2) recruitment; top final concentration 20 μM; read-out: TR-FRET i-Ag; AC50. Format: biochemical. A digest of the protocol: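 His-tagged PPARγ (or controls) was preincubated with compound for 20 minutes at room temperature, then 5 nM anti-His terbium antibody and 200 nM FITC-labeled SMRT-ID2 corepressor peptide (final) were added for a further hour. TR-FRET signal was normalized to percent response using 500 nM T0070907 and DMSO controls.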
For `CC1CCC(NC(=O)C2CCN(C(=O)c3cc(-c4ccncc4Cl)[nH]n3)CC2)CC1` (mixture of isomers) [Example 109, 1-(5-(3-chloropyridin-4-yl)-1H-pyrazole-3-carbonyl)-N-(4-methylcyclohexyl)piperidine-4-carboxamide], the AC50 was found to be 0.373 µM.

The same test, now with this note: Co-R peptide recruitment to PPARγ; read-out: TR-FRET AC50.
Consider `COc1cc(F)c(NC(=O)C2CCN(C(=O)c3cc(-c4cc(OC)ncc4Cl)[nH]n3)CC2)c(F)c1` [1-[5-(5-chloro-2-methoxypyridin-4-yl)-1H-pyrazole-3-carbonyl]-N-(2,6-difluoro-4-methoxyphenyl)piperidine-4-carboxamide], for which the AC50 is over 1 µM.

`COc1cc(-c2cc(C(=O)N3CCC(C(=O)NC45CCC(O)(CC4)C5)CC3)n[nH]2)c(F)cn1`: the AC50 was over 1 µM.

`COc1cc(-c2cc(C(=O)N3CCC(C(=O)NCC4(F)COC4)CC3)n[nH]2)c(Cl)cn1` [1-[5-(5-chloro-2-methoxypyridin-4-yl)-1H-pyrazole-3-carbonyl]-N-[(3-fluorooxetan-3-yl)methyl]piperidine-4-carboxamide]: the AC50 was over 1 µM.

On to `COc1cc(-c2cc(C(=O)N3CCC(CO)(C(=O)NCc4cccc(Cl)c4)CC3)n[nH]2)c(Cl)cn1` [1-[5-(5-chloro-2-methoxypyridin-4-yl)-1H-pyrazole-3-carbonyl]-N-[(3-chlorophenyl)methyl]-4-(hydroxymethyl)piperidine-4-carboxamide], for which the AC50 was over 1 µM.

Take `Cc1ccc([C@@H](C)NC(=O)C2CCN(C(=O)c3cc(-c4ccncc4)[nH]n3)CC2)cc1` [N-[(1R)-1-(4-methylphenyl)ethyl]-1-[5-(pyridin-4-yl)-1H-pyrazole-3-carbonyl]piperidine-4-carboxamide]: the AC50 is over 1 µM.

Take `COc1cc(-c2cc(C(=O)N3CCC(C(=O)NC4CCN(Cc5ccccc5)C4)CC3)n[nH]2)c(Cl)cn1` (centres unmarked) [N-(1-benzylpyrrolidin-3-yl)-1-[5-(5-chloro-2-methoxypyridin-4-yl)-1H-pyrazole-3-carbonyl]piperidine-4-carboxamide]: the AC50 is over 1 µM.

Regarding `COc1cc(-c2cc(C(=O)N3CCC(C(=O)Nc4cnnc5ccccc45)CC3)n[nH]2)c(Cl)cn1` [1-[5-(5-chloro-2-methoxypyridin-4-yl)-1H-pyrazole-3-carbonyl]-N-(cinnolin-4-yl)piperidine-4-carboxamide], the AC50 is over 1 µM.

In the case of `CC1CCC(NC(=O)C2CCN(C(=O)c3cc(-c4ccnc(N(C)C)c4)[nH]n3)CC2)CC1` (centres unmarked) [1-{5-[2-(dimethylamino)pyridin-4-yl]-1H-pyrazole-3-carbonyl}-N-(4-methylcyclohexyl)piperidine-4-carboxamide], the AC50 is over 1 µM.

Consider `COc1cc(-c2cc(C(=O)N3CCC(C(=O)NCc4cc(F)cc(C(F)(F)F)c4)CC3)n[nH]2)c(Cl)cn1` [1-[5-(5-chloro-2-methoxypyridin-4-yl)-1H-pyrazole-3-carbonyl]-N-{[3-fluoro-5-(trifluoromethyl)phenyl]methyl}piperidine-4-carboxamide], for which the AC50 was over 1 µM.

Consider `O=C(NCc1ccc2c(c1)OCO2)C1CCCN(C(=O)c2cc(-c3ccncc3)[nH]n2)C1` (centres unmarked) [N-[(2H-1,3-benzodioxol-5-yl)methyl]-1-[5-(pyridin-4-yl)-1H-pyrazole-3-carbonyl]piperidine-3-carboxamide], for which the AC50 is over 1 µM.

Regarding `COc1ccc(C)cc1CNC(=O)C1CCN(C(=O)c2cc(-c3ccncc3)[nH]n2)CC1` [N-[(2-methoxy-5-methylphenyl)methyl]-1-[5-(pyridin-4-yl)-1H-pyrazole-3-carbonyl]piperidine-4-carboxamide], the AC50 is over 1 µM.

As to `CN(CCC#N)C(=O)C1CCN(C(=O)c2cc(-c3ccncc3)[nH]n2)CC1` [N-(2-cyanoethyl)-N-methyl-1-[5-(pyridin-4-yl)-1H-pyrazole-3-carbonyl]piperidine-4-carboxamide], the AC50 is over 1 µM.

For `CN(C)[C@H]1CCN(C(=O)C2CCN(C(=O)c3cc(-c4ccncc4)[nH]n3)CC2)C1` [(3S)—N,N-dimethyl-1-{1-[5-(pyridin-4-yl)-1H-pyrazole-3-carbonyl]piperidine-4-carbonyl}pyrrolidin-3-amine], the AC50 was over 1 µM.

Take `COc1cc(-c2cc(C(=O)N3CCC(C(=O)Nc4cccc(F)c4F)CC3)n[nH]2)c(Cl)cn1` [1-[5-(5-chloro-2-methoxypyridin-4-yl)-1H-pyrazole-3-carbonyl]-N-(2,3-difluorophenyl)piperidine-4-carboxamide]: the AC50 was over 1 µM.

As for `COc1cc(-c2cc(C(=O)N3CCC(C(=O)NCc4ccc5nncn5c4)CC3)n[nH]2)c(Cl)cn1` [1-[5-(5-chloro-2-methoxypyridin-4-yl)-1H-pyrazole-3-carbonyl]-N-({[1,2,4]triazolo[4,3-a]pyridin-6-yl}methyl)piperidine-4-carboxamide], the AC50 is over 1 µM.

For `Cc1cnccc1NC(=O)C1CCN(C(=O)c2cc(-c3ccncc3)[nH]n2)CC1` [N-(3-methylpyridin-4-yl)-1-[5-(pyridin-4-yl)-1H-pyrazole-3-carbonyl]piperidine-4-carboxamide], the AC50 was over 1 µM.

As for `Cc1cc(CNC(=O)C2CCN(C(=O)c3cc(-c4ccncc4)[nH]n3)CC2)sc1C` [N-[(4,5-dimethylthiophen-2-yl)methyl]-1-[5-(pyridin-4-yl)-1H-pyrazole-3-carbonyl]piperidine-4-carboxamide], the AC50 is over 1 µM.

For the compound `COc1cc(-c2cc(C(=O)N3CCC(C(=O)NCC4CC(F)(F)C(=O)N4)CC3)n[nH]2)c(Cl)cn1` (centres unmarked) [1-[5-(5-chloro-2-methoxypyridin-4-yl)-1H-pyrazole-3-carbonyl]-N-[(4,4-difluoro-5-oxopyrrolidin-2-yl)methyl]piperidine-4-carboxamide], the AC50 was over 1 µM.

Turning to `COc1cc(-c2cc(C(=O)N3CCC(C(=O)N[C@@H]4C[C@@H](C)Oc5ccccc54)CC3)n[nH]2)c(Cl)cn1` [1-[5-(5-chloro-2-methoxypyridin-4-yl)-1H-pyrazole-3-carbonyl]-N-[(2R,4R)-2-methyl-3,4-dihydro-2H-1-benzopyran-4-yl]piperidine-4-carboxamide], the AC50 was over 1 µM.

Take `O=C(Nc1ccc(F)cn1)C1CCN(C(=O)c2cc(-c3ccncc3)[nH]n2)CC1` [N-(5-fluoropyridin-2-yl)-1-[5-(pyridin-4-yl)-1H-pyrazole-3-carbonyl]piperidine-4-carboxamide]: the AC50 is over 1 µM.

Regarding `COc1cc(-c2cc(C(=O)N3CCC(C(=O)NC4CCCCO4)CC3)n[nH]2)c(F)cn1` (centres unmarked) [1-[5-(5-fluoro-2-methoxypyridin-4-yl)-1H-pyrazole-3-carbonyl]-N-(oxan-2-yl)piperidine-4-carboxamide], the AC50 was over 1 µM.

For the compound `Cc1cc(-c2cc(C(=O)N3CCC(C(=O)N[C@H]4CC[C@@](O)(C(F)(F)F)CC4)CC34CC4)n[nH]2)c([C@H](C)O)cn1` (single isomer, unassigned), the AC50 is over 1 µM.

Consider `O=C(NCc1ccccc1Cl)C1CCN(C(=O)c2cc(-c3cccnc3)[nH]n2)CC1` [N-[(2-chlorophenyl)methyl]-1-[5-(pyridin-3-yl)-1H-pyrazole-3-carbonyl]piperidine-4-carboxamide], for which the AC50 is over 1 µM.

For `COc1cc(-c2cc(C(=O)N3CCC(C(=O)NC4COC(C)(C)OC4)CC3)n[nH]2)c(Cl)cn1` [1-[5-(5-chloro-2-methoxypyridin-4-yl)-1H-pyrazole-3-carbonyl]-N-(2,2-dimethyl-1,3-dioxan-5-yl)piperidine-4-carboxamide], the AC50 was over 1 µM.

For the compound `COc1cc(-c2cc(C(=O)N3CCC(C(=O)Nc4cc(-c5ccccc5)[nH]n4)CC3)n[nH]2)c(Cl)cn1` [1-[5-(5-chloro-2-methoxypyridin-4-yl)-1H-pyrazole-3-carbonyl]-N-(5-phenyl-1H-pyrazol-3-yl)piperidine-4-carboxamide], the AC50 was over 1 µM.

For `O=C(NCc1ccncc1)C1CCN(C(=O)c2cc(-c3ccncc3)[nH]n2)CC1` [1-[5-(pyridin-4-yl)-1H-pyrazole-3-carbonyl]-N-[(pyridin-4-yl)methyl]piperidine-4-carboxamide], the AC50 was over 1 µM.

For the compound `O=C(NCc1cnc2c(c1)CCC2)C1CCN(C(=O)c2cc(-c3ccncc3)[nH]n2)CC1` [N-({5H,6H,7H-cyclopenta[b]pyridin-3-yl}methyl)-1-[5-(pyridin-4-yl)-1H-pyrazole-3-carbonyl]piperidine-4-carboxamide], the AC50 is over 1 µM.

Regarding `COc1cc(-c2cc(C(=O)N3CCC(C(=O)NC4CCC(C#N)CC4)CC3)n[nH]2)c(Cl)cn1` (centres unmarked) [1-[5-(5-chloro-2-methoxypyridin-4-yl)-1H-pyrazole-3-carbonyl]-N-(4-cyanocyclohexyl)piperidine-4-carboxamide], the AC50 is over 1 µM.

Take `COc1cc(-c2cc(C(=O)N3CCC(C(=O)NC4CCC(O)C4)CC3)n[nH]2)c(Cl)cn1` (centres unmarked) [1-[5-(5-chloro-2-methoxypyridin-4-yl)-1H-pyrazole-3-carbonyl]-N-(3-hydroxycyclopentyl)piperidine-4-carboxamide]: the AC50 is over 1 µM.

Regarding `O=C(N[C@H]1CC[C@H](O)CC1)C1CCN(C(=O)c2cc(-c3ccncc3)[nH]n2)CC1`, the AC50 is over 1 µM.

With `COc1cc(-c2cc(C(=O)N3CCC(C(=O)N[C@@H]4CCCc5cccnc54)CC3)n[nH]2)c(Cl)cn1` [1-[5-(5-chloro-2-methoxypyridin-4-yl)-1H-pyrazole-3-carbonyl]-N-[(8R)-5,6,7,8-tetrahydroquinolin-8-yl]piperidine-4-carboxamide], the AC50 was over 1 µM.
